In US5693488A, “Transmembrane tyrosine phosphatase, nucleic acids encoding the same, and methods of use thereof” (The Rockefeller University, priority 1994, dated 1997):

Assays:
[1] = biological target: T1, pKPTPλ, truncated ChPTPλ containing the intracellular domain (Gallus gallus, UniProt Q91976); test: PTP assay of bacterial extract expressing pKPTPλ; format: biochemical, chicken
T1 construct: HindIII/EcoRI fragment in pKKUC12, E. coli DHB4 extract
Description: A 2 kb-cDNA fragment encoding the entire intracellular domain of ChPTPλ was excised by HindIII and EcoRI (starting from leucine 520, FIG. 2A-2C) and ligated to the expression vector pKKUC12. The recombinant,pkPTPλ, was transformed into E. coli DHB4 that lacks alkaline phosphatase (35). After induction by 0.4 mM IPTG for 2 h, bacterial extracts were prepared (5) and 5 μl samples were used for PTP assays. The extract of DHB4 containing the vector only was used as a negative control.
(§1) Raytide (Oncogene Science) and bovine brain myelin basic protein (Sigma) (20 μg each) were phosphorylated on tyrosines by v-Src (34 pg), purified from a baculovirus expression system (35a), in 50 μl containing 20 mM Tris-HCl, pH 7.2/5 mM MnCl2 /50 μCi [γ-^32 P]ATP at 30° C. for 3 h. Casein and histone 2B (Sigma) were phosphorylated on serines and threonines by the catalytic subunit of calf heart cAMP-dependent protein kinase (1 U, Sigma) in 50 μl including 25 mM Hepes, pH 7.4/10 mM MgCl2 /10 mM DTT/50 μCi [γ-^32 P]ATP. All reactions were terminated by TCA-precipitationand resuspended in Tris-HCl (pH 8.0) as previously described (5).
(§2) […] When bacterial extract was used, assay was done in 50 μl of PTP buffer. After incubating at 30° C. for 30 min, the reactions were stopped, and the released ^32 Pi was measured as previously described (5).

[2] = test system: ChPTPλ; test: PTP assay of ChPTPλ immunoprecipitated with A299 from DT40 cells (release of 32Pi from tyrosine-phosphorylated substrate); format: biochemical, chicken; details: for ChPTPλ (% activity): buffer 20 mM Hepes (pH 7.4); for effect on ChPTPλ activity (in words) / effect on ChPTPλ activity: concentration not given (Table 1); for requirement for higher ChPTPλ activity in vitro (in words): chelator
Description: For immunoblot (Western) analysis, cells were lysed in 1% SDS containing protease inhibitor mix (1 mM phenylmethylsulfonyl fluoride/2 μg aprotinin per ml/1 μg pepstatin per ml) (Boehringer). […] For immunoprecipitation, cells were solubilized in 1% NP-40/PBS/protease inhibitor mix, then ChPTPλ was immunoprecipitated with pA299 (25).
as §1, §2

[3] = 10 mM, buffer 20 mM Hepes (pH 7.4), 10 mM DTT, 5 mM EDTA

T1 sequence (Q91976 541-1237): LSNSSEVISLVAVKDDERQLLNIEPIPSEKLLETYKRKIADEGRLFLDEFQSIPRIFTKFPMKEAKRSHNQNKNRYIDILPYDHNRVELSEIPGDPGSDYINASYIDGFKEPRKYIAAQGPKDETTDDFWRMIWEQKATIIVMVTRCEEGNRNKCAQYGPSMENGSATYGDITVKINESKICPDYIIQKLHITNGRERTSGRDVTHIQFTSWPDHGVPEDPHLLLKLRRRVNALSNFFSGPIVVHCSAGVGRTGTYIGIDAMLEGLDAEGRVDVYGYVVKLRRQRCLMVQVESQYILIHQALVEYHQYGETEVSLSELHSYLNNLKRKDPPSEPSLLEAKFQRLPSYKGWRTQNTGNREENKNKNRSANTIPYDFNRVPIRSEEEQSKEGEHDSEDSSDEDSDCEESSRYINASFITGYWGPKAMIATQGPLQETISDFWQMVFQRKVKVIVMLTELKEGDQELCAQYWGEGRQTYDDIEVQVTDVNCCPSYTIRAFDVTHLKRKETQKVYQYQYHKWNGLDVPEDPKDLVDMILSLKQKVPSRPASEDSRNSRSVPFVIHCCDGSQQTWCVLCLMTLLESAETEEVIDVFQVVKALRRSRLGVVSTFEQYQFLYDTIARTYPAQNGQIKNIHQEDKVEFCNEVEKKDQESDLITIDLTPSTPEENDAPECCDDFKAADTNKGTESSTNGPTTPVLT

[Ca+2].[Cl-].[Cl-] [CaCl2]
pKPTPλ (% activity) [1, 3]: 90% | ChPTPλ (% activity) ([2]; 10 mM, 10 mM DTT, 5 mM EDTA): 100% | effect on ChPTPλ activity (in words) [2]: no effect at all

O[C@@H](CS)[C@@H](O)CS [DTT]
pKPTPλ (% activity) ([1]; 10 nM, buffer 20 mM Hepes (pH 7.4)): 80% | ChPTPλ (% activity) ([2]; 10 nM): 65% | ChPTPλ (% activity) ([2]; 1 mM): 39% | requirement for ChPTPλ activity (in words) ([2]; 10 mM, reducing reagent): required for ChPTPλ activity

O=C(O)CN(CCN(CC(=O)O)CC(=O)O)CC(=O)O [EDTA]
activity at 0.005 µM ([1]; pH 7.4, read-out: pKPTPλ (% activity)): 100% | ChPTPλ (% activity) ([2]; 5 nM, 10 mM DTT): 100% | requirement for higher ChPTPλ activity in vitro (in words) [2]: needed for ChPTPλ to reach a higher activity

O=C(O)CN(CCOCCOCCN(CC(=O)O)CC(=O)O)CC(=O)O [EGTA]
activity at 5000 µM ([1]; 5 mM, buffer 20 mM Hepes (pH 7.4), 10 mM DTT): 100% | ChPTPλ (% activity) ([2]; 5 mM, 10 mM DTT): 100% | requirement for higher ChPTPλ activity in vitro (in words) [2]: needed for ChPTPλ to reach a higher activity

O=C(O)CI [Iodoacetate]
inhibition of ChPTPλ ([2]; 1 mM): > 70% | ChPTPλ (% activity) ([2]; 1 mM, 10 mM DTT, 5 mM EDTA): 29%

[Cl-].[Cl-].[Mg+2] [MgCl2]
pKPTPλ (% activity) [1, 3]: 80% | ChPTPλ (% activity) ([2]; 10 mM, 10 mM DTT, 5 mM EDTA): 80% | effect on ChPTPλ activity [2]: < 30%

[Cl][Mn][Cl] [MnCl2]
pKPTPλ (% activity) [1, 3]: 51% | inhibitory influence on pKPTPλ activity ([1]; same assaying conditions (Table 1)): 49% | ChPTPλ (% activity) ([2]; 10 mM, 10 mM DTT, 5 mM EDTA): 87% | effect on ChPTPλ activity [2]: < 30%

[Na+].[Na+].[O]=[Mo](=[O])([O-])[O-] [Na2 MoO4]
pKPTPλ (% activity) ([1]; 0.1 mM, buffer 20 mM Hepes (pH 7.4), 10 mM DTT, 5 mM EDTA): 11% | inhibition of ChPTPλ ([2]; 0.1 mM): > 70% | ChPTPλ (% activity) ([2]; 0.1 mM, 10 mM DTT, 5 mM EDTA): 24%

[Na+].[Na+].[Na+].[O]=[V]([O-])([O-])[O-] [Na3 VO4]
pKPTPλ (% activity) ([1]; 1 mM, buffer 20 mM Hepes (pH 7.4), 10 mM DTT, 5 mM EDTA): 2% | ChPTPλ (% activity) ([2]; 0.1 mM, 10 mM DTT, 5 mM EDTA): 78% | inhibition of ChPTPλ ([2]; 1 mM): > 70% | ChPTPλ (% activity) ([2]; 1 mM, 10 mM DTT, 5 mM EDTA): 4%

[Cl-].[Na+] [NaCl]
ChPTPλ (% activity) ([2]; 200 mM, 10 mM DTT, 5 mM EDTA): 100% | effect on ChPTPλ activity (in words) [2]: no effect at all

[Cl-].[Cl-].[Zn+2] [ZnCl2]
pKPTPλ (% activity) [1, 3]: 1% | inhibition of ChPTPλ ([2]; 10 mM): > 70% | ChPTPλ (% activity) ([2]; 10 mM, 10 mM DTT, 5 mM EDTA): 12%

NaPO4
pKPTPλ (% activity) [1, 3]: 95% | ChPTPλ (% activity) ([2]; 10 mM, 10 mM DTT, 5 mM EDTA): 70% | effect on ChPTPλ activity [2]: < 30%
